Measured values as given in patent publication US9840510B1, “Pyrazolo[1,5-a]pyrimidinyl carboxamide compounds and their use in the treatment of medical disorders” (Lysosomal Therapeutics Inc., priority 2016, dated 2017).
In brackets after ≈: the same amount, converted by molar mass.

Assay: Compound solubility in water
Format: physicochemical

SMILES | solubility [µg/mL] | Compound Solubility in Water [µg/mL]
CCCO[C@H]1CC[C@H](NC(=O)c2cnn3c(C)cc(-c4cccnc4)nc23)CC1 [III-40] | 20 (≈ 50.8 µM) | 
Cc1cc(-c2cccnc2)nc2c(C(=O)NC(C(C)C)C(F)(F)F)cnn12 (stereo not drawn) [III-41] | 1.9 (≈ 5.03 µM) | 
CCC(NC(=O)c1cnn2c(C)cc(-c3cccnc3)nc12)C(F)(F)F (stereo not drawn) [III-42] | 15.1 (≈ 41.6 µM) | 
Cc1cc(-c2cccnc2)nc2c(C(=O)NC(C)C(F)(F)F)cnn12 (stereo not drawn) [III-43] | 12.1 (≈ 34.6 µM) | 
Cc1cc(NC2CC2)nc2c(C(=O)NC(C3CC3)C(F)(F)F)cnn12 (stereo not drawn) [III-44] | 3 (≈ 8.49 µM) | 
Cc1cc(Cl)nc2c(C(=O)NC(C3CC3)C(F)(F)F)cnn12 (stereo not drawn) [III-45] | 10.2 (≈ 30.7 µM) | 
COCc1cc(-c2ccc(F)cc2)nc2c(C(=O)N[C@@H](C)C3CC3)cnn12 [III-46] | 3.4 (≈ 9.23 µM) | 
COCc1cc(-c2ccc(F)cc2)nc2c(C(=O)NC(C)(C)C3CC3)cnn12 [III-47] | 0.3 (≈ 0.784 µM) | 
CCc1cc(-c2ccccn2)n2ncc(C(=O)NC(C)C3CC3)c2n1 (stereo not drawn) [III-48] | 19.8 (≈ 59 µM) | 
CCc1cc(-c2ccccn2)nc2c(C(=O)NC(C)C3CC3)cnn12 (stereo not drawn) [III-49] | 2.5 (≈ 7.45 µM) | 
Cc1cc(-c2ccccn2)nc2c(C(=O)NC(C)C(F)(F)F)cnn12 (stereo not drawn) [III-50] | 1.6 (≈ 4.58 µM) | 
CCc1cc(-c2ccccn2)n2ncc(C(=O)NC(C)C(F)(F)F)c2n1 (stereo not drawn) [III-51] | 14.1 (≈ 38.8 µM) | 
CCc1cc(-c2ccccn2)nc2c(C(=O)NC(C)C(F)(F)F)cnn12 (stereo not drawn) [III-52] | 2.4 (≈ 6.61 µM) | 
COc1cccc(-c2cc(C)n3ncc(C(=O)NC(C)C(F)(F)F)c3n2)c1 (stereo not drawn) [III-55] | 1.7 (≈ 4.49 µM) | 
Cc1cc(-c2cccc(F)c2)nc2c(C(=O)N[C@@H](C)C3CC3)cnn12 [III-56] | 1.1 (≈ 3.25 µM) | 
COc1cccc(-c2cc(C)n3ncc(C(=O)N[C@@H](C)C4CC4)c3n2)c1 [III-57] | 2.7 (≈ 7.7 µM) | 
Cc1cc(N2CCOCC2)nc2c(C(=O)NC(C)C3CC3)cnn12 (stereo not drawn) [III-58] | 20.1 (≈ 61 µM) | 
Cc1cc(N2CCOCC2)nc2c(C(=O)NC(C)(C)C3CC3)cnn12 [III-59] | 10.3 (≈ 30 µM) | 
Cc1cc(N2CCC(F)(F)CC2)nc2c(C(=O)NC(C)C3CC3)cnn12 (stereo not drawn) [III-60] | 4.4 (≈ 12.1 µM) | 
Cc1cc(N2CCCC(F)(F)C2)nc2c(C(=O)NC(C)C3CC3)cnn12 (stereo not drawn) [III-61] | 5.5 (≈ 15.1 µM) | 
Cc1cc(-c2cccc(Cl)n2)nc2c(C(=O)NC(C)(C)C3CC3)cnn12 [III-62] | 1.2 (≈ 3.24 µM) | 
C#CC(C)(C)NC(=O)c1cnn2c(C)cc(-c3cccc(Cl)n3)nc12 [III-63] | 0.2 (≈ 0.565 µM) | 
Cc1cc(-c2cccc(Cl)c2)nc2c(C(=O)NC(C)C(F)(F)F)cnn12 (stereo not drawn) [III-64] | 6.2 (≈ 16.2 µM) | 
Cc1cc(-c2cccc(Cl)c2)nc2c(C(=O)N[C@@H](C)C3CC3)cnn12 [III-65] | 0.9 (≈ 2.54 µM) | 
Cc1cc(N2CCCC(F)(F)C2)nc2c(C(=O)NC(C3CC3)C(F)(F)F)cnn12 (stereo not drawn) [III-66] | 0.3 (≈ 0.719 µM) | 
Cc1cc(N2CCC(F)(F)C2)nc2c(C(=O)NC(C3CC3)C(F)(F)F)cnn12 (stereo not drawn) [III-67] | 1.9 (≈ 4.71 µM) | 
Cc1cc(C(F)(F)F)nc2c(C(=O)NC(C)(C)C3CC3)cnn12 [III-68] | 11.9 (≈ 36.5 µM) | 

SMILES | solubility [µg/mL] | Compound Solubility in Water [µg/mL]
C#CC(C)(C)NC(=O)c1cnn2c(C)cc(-c3cccc(OC)c3)nc12 [III-69] | 0.5 (≈ 1.44 µM) | 
Cc1cc(-c2cccc(C#N)c2)nc2c(C(=O)N[C@@H](C)C3CC3)cnn12 [III-70] | 2.1 (≈ 6.08 µM) | 
Cc1cc(-c2cccc(C#N)c2)nc2c(C(=O)NC(C)(C)C3CC3)cnn12 [III-71] | 0.5 (≈ 1.39 µM) | 
Cc1cc(-c2cccc(C#N)c2)nc2c(C(=O)NC(C3CC3)C(F)(F)F)cnn12 (stereo not drawn) [III-72] | 0.1 (≈ 0.25 µM) | 
Cc1cc(-c2cccc(C(N)=O)c2)nc2c(C(=O)NC(C3CC3)C(F)(F)F)cnn12 (stereo not drawn) [III-73] | 0.4 (≈ 0.958 µM) | 
COCc1cc(-c2cccc(F)c2)nc2c(C(=O)NC(C)(C)C3CC3)cnn12 [III-74] | 0.8 (≈ 2.09 µM) | 
C#CC(C)(C)NC(=O)c1cnn2c(C)cc(-c3cccc(F)c3)nc12 [III-75] | 0.6 (≈ 1.78 µM) | 
CCOc1cccc(-c2cc(C)n3ncc(C(=O)NC(C)C(F)(F)F)c3n2)c1 (stereo not drawn) [III-76] | 0.2 (≈ 0.51 µM) | 
Cc1cc(-c2cccc(OC3CC3)c2)nc2c(C(=O)NC(C)C(F)(F)F)cnn12 (stereo not drawn) [III-77] | 0.3 (≈ 0.742 µM) | 
Cc1cc(NC2CC2)nc2c(C(=O)NC(C3CC3)C3CC3)cnn12 [III-78] | 5.6 (≈ 17.2 µM) | 
COCc1cc(-c2cccc(OC)c2)nc2c(C(=O)NC(C)(C)C3CC3)cnn12 [III-79] | 0.5 (≈ 1.27 µM) | 
Cc1cc(-c2cccc(F)c2)nc2c(C(=O)NC(C)(C)C(F)(F)F)cnn12 [III-80] | 0.2 (≈ 0.526 µM) | 
C#CC(C)(C)NC(=O)c1cnn2c(C)cc(-c3cccc(Cl)c3)nc12 [III-81] | 1.5 (≈ 4.25 µM) | 
C#CC(C)(C)NC(=O)c1cnn2c(C)cc(-c3cccc(OC4CC4)c3)nc12 [III-82] | 1.5 (≈ 4.01 µM) | 
Cc1cc(-c2ccc3ocnc3c2)nc2c(C(=O)NC(C3CC3)C(F)(F)F)cnn12 (stereo not drawn) [III-83] | 0.3 (≈ 0.722 µM) | 
Cc1cc(-c2ccc(F)nc2)nc2c(C(=O)NC(C3CC3)C(F)(F)F)cnn12 (stereo not drawn) [III-84] | 0.8 (≈ 2.03 µM) | 
Cc1cc(-c2cccnc2F)nc2c(C(=O)NC(C3CC3)C(F)(F)F)cnn12 (stereo not drawn) [III-85] | 1 (≈ 2.54 µM) | 
Cc1cc(-c2ccc(F)cc2)nc2c(C(=O)N[C@H](C)C3CC3)cnn12 [III-86] | 2.8 (≈ 8.27 µM) | 
Cc1cc(-c2cccnc2)nc2c(C(=O)N[C@H](C3CC3)C(F)(F)F)cnn12 [III-88] | 14.8 (≈ 39.4 µM) | 
Cc1cc(-c2cccnc2)nc2c(C(=O)N[C@@H](C3CC3)C(F)(F)F)cnn12 [III-89] | 10.4 (≈ 27.7 µM) | 
COc1cccc(-c2cc(C)n3ncc(C(=O)N[C@H](C)C(F)(F)F)c3n2)c1 [III-90] | 2 (≈ 5.29 µM) | 
COc1cccc(-c2cc(C)n3ncc(C(=O)N[C@@H](C)C(F)(F)F)c3n2)c1 [III-91] | 1.7 (≈ 4.49 µM) | 
Cc1cc(-c2cccc(F)c2)nc2c(C(=O)N[C@H](C)C3CC3)cnn12 [III-92] | 0.2 (≈ 0.591 µM) | 
Cc1cc(N2CCCC(F)(F)C2)nc2c(C(=O)N[C@H](C3CC3)C(F)(F)F)cnn12 [III-94] | 0.6 (≈ 1.44 µM) | 
Cc1cc(N2CCCC(F)(F)C2)nc2c(C(=O)N[C@@H](C3CC3)C(F)(F)F)cnn12 [III-95] | 1 (≈ 2.4 µM) | 
C#CC(NC(=O)c1cnn2c(C)cc(-c3cccc(OC)c3)nc12)C(F)(F)F (stereo not drawn) [III-96] | 2 (≈ 5.15 µM) | 

Results, then the molecule that gave them:

solubility [µg/mL] | Compound Solubility in Water [µg/mL] | SMILES
0.2 (≈ 0.505 µM) |  | COc1ccc(F)c(-c2cc(C)n3ncc(C(=O)N[C@H](C)C(F)(F)F)c3n2)c1 [III-97]
0.3 (≈ 0.757 µM) |  | COc1ccc(F)c(-c2cc(C)n3ncc(C(=O)N[C@@H](C)C(F)(F)F)c3n2)c1 [III-98]
0.2 (≈ 0.509 µM) |  | C#CC(NC(=O)c1cnn2c(C)cc(-c3cccc(Cl)c3)nc12)C(F)(F)F (stereo not drawn) [III-99]
0.9 (≈ 2.36 µM) |  | Cc1cc(-c2ccns2)nc2c(C(=O)N[C@H](C3CC3)C(F)(F)F)cnn12 [III-100]
1.3 (≈ 3.41 µM) |  | Cc1cc(-c2ccns2)nc2c(C(=O)N[C@@H](C3CC3)C(F)(F)F)cnn12 [III-101]
0.4 (≈ 0.908 µM) |  | Cc1cc(-c2cccc(-c3ncc[nH]3)c2)nc2c(C(=O)NC(C3CC3)C(F)(F)F)cnn12 (stereo not drawn) [III-102]
0.8 (≈ 1.71 µM) |  | Cc1cc(-c2cccc(Oc3ncccn3)c2)nc2c(C(=O)NC(C3CC3)C(F)(F)F)cnn12 (stereo not drawn) [III-103]
0.02 (≈ 0.0481 µM) |  | Cc1cc(-c2cccc3ncoc23)nc2c(C(=O)NC(C3CC3)C(F)(F)F)cnn12 (stereo not drawn) [III-104]
0.1 (≈ 0.241 µM) |  | Cc1cc(-c2cccc3ocnc23)nc2c(C(=O)NC(C3CC3)C(F)(F)F)cnn12 (stereo not drawn) [III-106]
0.1 (≈ 0.251 µM) |  | Cc1cc(-n2ccc(Cl)n2)nc2c(C(=O)NC(C3CC3)C(F)(F)F)cnn12 (stereo not drawn) [III-107]
 | 0.3 | Cc1cc(-c2ccc3ocnc3c2)nc2c(C(=O)NC(C3CC3)C(F)(F)F)cnn12 (stereo not drawn) [III-108]
0.5 (≈ 1.2 µM) |  | Cc1cc(-c2ccc3ocnc3c2)nc2c(C(=O)N[C@H](C3CC3)C(F)(F)F)cnn12 [III-109]
0.4 (≈ 0.963 µM) |  | Cc1cc(-c2ccc3ocnc3c2)nc2c(C(=O)N[C@@H](C3CC3)C(F)(F)F)cnn12 [III-110]
0.07 (≈ 0.178 µM) |  | Cc1cc(-c2cccc(F)c2)nc2c(C(=O)NC(C3CC3)C(F)(F)F)cnn12 (stereo not drawn) [III-111]
 | 0.8 | Cc1cc(-c2ccc(F)nc2)nc2c(C(=O)NC(C3CC3)C(F)(F)F)cnn12 (stereo not drawn) [III-112]
 | 1.0 | Cc1cc(-c2cccnc2F)nc2c(C(=O)NC(C3CC3)C(F)(F)F)cnn12 (stereo not drawn) [III-113]
2.1 (≈ 5.34 µM) |  | Cc1cc(-c2cccnc2F)nc2c(C(=O)N[C@H](C3CC3)C(F)(F)F)cnn12 [III-114]

solubility [µg/mL] | Compound Solubility in Water [µg/mL] | SMILES
1.9 (≈ 4.83 µM) |  | Cc1cc(-c2cccnc2F)nc2c(C(=O)N[C@@H](C3CC3)C(F)(F)F)cnn12 [III-115]
1 (≈ 2.44 µM) |  | Cc1cc(-c2ccc(Cl)nc2)nc2c(C(=O)NC(C3CC3)C(F)(F)F)cnn12 (stereo not drawn) [III-116]
0.8 (≈ 1.95 µM) |  | Cc1cc(-c2ccc(Cl)nc2)nc2c(C(=O)N[C@H](C3CC3)C(F)(F)F)cnn12 [III-117]
0.08 (≈ 0.195 µM) |  | Cc1cc(-c2cncc(Cl)c2)nc2c(C(=O)NC(C3CC3)C(F)(F)F)cnn12 (stereo not drawn) [III-119]
0.7 (≈ 1.71 µM) |  | Cc1cc(-c2cncc(Cl)c2)nc2c(C(=O)N[C@H](C3CC3)C(F)(F)F)cnn12 [III-120]
0.7 (≈ 1.71 µM) |  | Cc1cc(-c2cncc(Cl)c2)nc2c(C(=O)N[C@@H](C3CC3)C(F)(F)F)cnn12 [III-121]
2.1 (≈ 5.12 µM) |  | Cc1cc(-c2cnccc2Cl)nc2c(C(=O)NC(C3CC3)C(F)(F)F)cnn12 (stereo not drawn) [III-122]
2.1 (≈ 5.12 µM) |  | Cc1cc(-c2cccnc2Cl)nc2c(C(=O)NC(C3CC3)C(F)(F)F)cnn12 (stereo not drawn) [III-123]
1.9 (≈ 4.83 µM) |  | Cc1cc(-c2cnccc2F)nc2c(C(=O)NC(C3CC3)C(F)(F)F)cnn12 (stereo not drawn) [III-124]
3.4 (≈ 8.64 µM) |  | Cc1cc(-c2cncc(F)c2)nc2c(C(=O)NC(C3CC3)C(F)(F)F)cnn12 (stereo not drawn) [III-125]
1.8 (≈ 4.58 µM) |  | Cc1cc(-c2cncc(F)c2)nc2c(C(=O)N[C@H](C3CC3)C(F)(F)F)cnn12 [III-126]
2.5 (≈ 6.36 µM) |  | Cc1cc(-c2cncc(F)c2)nc2c(C(=O)N[C@@H](C3CC3)C(F)(F)F)cnn12 [III-127]
3 (≈ 8.26 µM) |  | Cc1cc(-c2cc(F)cc(C#N)c2)nc2c(C(=O)N[C@@H](C)C3CC3)cnn12 [III-128]
0.02 (≈ 0.0533 µM) |  | COc1cc(C#N)cc(-c2cc(C)n3ncc(C(=O)N[C@@H](C)C4CC4)c3n2)c1 [III-129]
0.6 (≈ 1.69 µM) |  | Cc1cc(-c2cccc(Cl)n2)nc2c(C(=O)N[C@@H](C)C3CC3)cnn12 [III-131]
0.2 (≈ 0.5 µM) |  | Cc1cc(-c2cccc(C#N)n2)nc2c(C(=O)NC(C3CC3)C(F)(F)F)cnn12 (stereo not drawn) [III-133]
0.8 (≈ 2.36 µM) |  | Cc1cc(-c2cccc(F)n2)nc2c(C(=O)N[C@@H](C)C3CC3)cnn12 [III-134]
